Patent US8772480B2, “Inhibitors of PI3 kinase and/or mTOR” (priority 2009, dated 2014)

Columns and labels:
PI3Kα = PI3Kα (Homo sapiens (Human), UniProt P42336); conditions: read-out: PI3Kα AlphaScreen ® Ki
[1] = test system: phosphorylation of Akt at Serine 473 in U87 MG cells; experiment: cells; conditions: Homo sapiens, U-87 MG, 2 h, read-out: U87Cell IC50, pAkt (Ser 473), U87 MG cells, two hours with compound

PI3Kα, sequence (P42336 whole entry): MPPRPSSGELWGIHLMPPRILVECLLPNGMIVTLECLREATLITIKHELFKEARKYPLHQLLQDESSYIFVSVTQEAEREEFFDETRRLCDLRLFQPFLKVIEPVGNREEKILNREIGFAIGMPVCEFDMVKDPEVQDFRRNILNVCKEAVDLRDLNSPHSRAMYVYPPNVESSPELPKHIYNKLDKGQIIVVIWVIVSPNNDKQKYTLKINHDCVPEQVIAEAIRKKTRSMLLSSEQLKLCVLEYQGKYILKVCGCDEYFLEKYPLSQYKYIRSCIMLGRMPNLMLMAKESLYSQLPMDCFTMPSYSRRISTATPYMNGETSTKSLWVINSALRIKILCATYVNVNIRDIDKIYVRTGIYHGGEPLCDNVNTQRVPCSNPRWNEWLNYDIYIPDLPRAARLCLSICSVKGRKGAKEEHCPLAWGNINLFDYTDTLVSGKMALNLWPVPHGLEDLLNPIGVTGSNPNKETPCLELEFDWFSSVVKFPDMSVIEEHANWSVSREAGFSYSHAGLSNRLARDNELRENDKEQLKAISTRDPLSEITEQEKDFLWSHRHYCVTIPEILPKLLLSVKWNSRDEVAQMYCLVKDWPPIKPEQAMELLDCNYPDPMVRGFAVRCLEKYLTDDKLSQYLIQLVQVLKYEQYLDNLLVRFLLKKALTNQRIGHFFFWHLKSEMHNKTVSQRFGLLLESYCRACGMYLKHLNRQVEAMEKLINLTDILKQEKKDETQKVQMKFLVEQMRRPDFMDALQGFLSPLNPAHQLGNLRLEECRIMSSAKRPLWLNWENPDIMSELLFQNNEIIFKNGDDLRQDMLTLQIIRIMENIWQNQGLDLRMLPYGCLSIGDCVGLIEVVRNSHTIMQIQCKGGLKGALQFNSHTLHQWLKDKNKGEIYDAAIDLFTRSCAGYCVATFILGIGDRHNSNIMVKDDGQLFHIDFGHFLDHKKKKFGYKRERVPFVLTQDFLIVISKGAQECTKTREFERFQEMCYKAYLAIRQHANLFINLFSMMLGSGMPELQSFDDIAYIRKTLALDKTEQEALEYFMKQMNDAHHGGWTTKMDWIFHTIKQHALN
PI3Kα, sequence (P27986 whole entry partner): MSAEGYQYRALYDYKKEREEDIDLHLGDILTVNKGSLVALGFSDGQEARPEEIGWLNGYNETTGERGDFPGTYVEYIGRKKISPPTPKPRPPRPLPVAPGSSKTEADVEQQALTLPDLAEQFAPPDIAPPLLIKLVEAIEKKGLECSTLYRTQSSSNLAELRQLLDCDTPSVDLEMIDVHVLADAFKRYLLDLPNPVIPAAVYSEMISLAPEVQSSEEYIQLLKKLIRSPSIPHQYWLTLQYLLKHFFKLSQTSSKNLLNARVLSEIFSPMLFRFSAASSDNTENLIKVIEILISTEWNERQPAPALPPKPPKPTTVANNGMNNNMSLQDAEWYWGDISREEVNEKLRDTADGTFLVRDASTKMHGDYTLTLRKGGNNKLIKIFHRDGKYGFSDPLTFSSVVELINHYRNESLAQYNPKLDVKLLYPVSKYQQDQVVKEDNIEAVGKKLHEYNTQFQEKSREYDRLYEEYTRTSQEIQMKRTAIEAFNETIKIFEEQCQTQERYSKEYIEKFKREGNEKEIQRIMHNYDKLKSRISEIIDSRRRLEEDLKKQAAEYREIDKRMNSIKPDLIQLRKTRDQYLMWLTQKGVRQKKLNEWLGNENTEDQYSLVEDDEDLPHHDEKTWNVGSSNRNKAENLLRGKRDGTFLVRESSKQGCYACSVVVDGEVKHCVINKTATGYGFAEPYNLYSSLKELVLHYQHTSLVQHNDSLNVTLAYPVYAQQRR

Structure (SMILES) | Ki (PI3Kα) | IC50 [1]
COCCOc1cnc(Nc2cnc(OC)c(NS(C)(=O)=O)c2)c(-c2nc(C)nc(N)n2)c1 [Example 336, N-(5-(3-(4-Amino-6-Methyl-1,3,5-Triazin-2-yl)-5-(2-Methoxyethoxy)Pyridin-2-Ylamino)-2-Methoxypyridin-3-yl)Methanesulfonamide] | 55 nM | 36 nM
COc1ncc(Nc2ncc(CN3CCOCC3)cc2-c2nc(C)nc(N)n2)cc1NS(C)(=O)=O [Example 337, N-(5-(3-(4-Amino-6-Methyl-1,3,5-Triazin-2-yl)-5-(Morpholinomethyl)Pyridin-2-Ylamino)-2-Methoxypyridin-3-yl)Methanesulfonamide] | 98 nM | 21 nM
Cc1nc(-c2cccnc2Nc2cnc(Cl)c(NS(C)(=O)=O)c2)c2nc[nH]c2n1 [Example 338, N-(2-Chloro-5-(3-(2-Methyl-9H-Purin-6-yl)Pyridin-2-Ylamino)Pyridin-3-yl)Methanesulfonamide] | 5 nM | 46 nM
Cc1nc(-c2cc(C(C)N3CCOCC3)cnc2Nc2cnc(Cl)c(NS(C)(=O)=O)c2)c2nc[nH]c2n1 (stereo not shown) [Example 339, N-(2-Chloro-5-(3-(2-Methyl-9H-Purin-6-yl)-5-(1-Morpholinoethyl)Pyridin-2-Ylamino)Pyridin-3-yl)Methanesulfonamide] | 3 nM | 45 nM
Cc1nc(-c2cc(C(C)N3CCOCC3)cnc2Nc2cnc(Cl)c(NS(=O)(=O)N(C)C)c2)c2nc[nH]c2n1 (stereo not shown) [Example 340, N′-(2-Chloro-5-((3-(2-Methyl-9H-Purin-6-yl)-5-(1-(4-Morpholinyl)Ethyl)-2-Pyridinyl)Amino)-3-Pyridinyl)-N,N-Dimethylsulfamide] | 4 nM | 14 nM
COc1cc(Nc2ncc([C@@H](C)N3CCN(S(C)(=O)=O)CC3)cc2-c2nc(C)nc(N)n2)cnc1Cl [Example 341, (R)-4-(2-(6-Chloro-5-Methoxypyridin-3-Ylamino)-5-(1-(4-(Methylsulfonyl)Piperazin-1-yl)Ethyl)Pyridin-3-yl)-6-Methyl-1,3,5-Triazin-2-Amine] | 19 nM | 17 nM
COc1cc(Nc2ncc(C(C)(C)O)cc2-c2nc(C)nc(N)n2)cnc1Cl [Example 342, 2-(5-(4-Amino-6-Methyl-1,3,5-Triazin-2-yl)-6-(6-Chloro-5-Methoxypyridin-3-Ylamino)Pyridin-3-yl)Propan-2-ol] | 25 nM | 8 nM
COc1ncc(Nc2ncc(C3CCOCC3)cc2-c2nc(C)nc(N)n2)cc1F [Example 344, 4-(2-(5-Fluoro-6-Methoxypyridin-3-Ylamino)-5-(Tetrahydro-2H-Pyran-4-yl)Pyridin-3-yl)-6-Methyl-1,3,5-Triazin-2-Amine] | 5 nM | 14 nM
COc1ncc(Nc2ncc(C(C)(C)O)cc2-c2cc(N)nc(C)n2)cc1F [Example 345, 2-(5-(6-Amino-2-Methylpyrimidin-4-yl)-6-(5-Fluoro-6-Methoxypyridin-3-Ylamino)Pyridin-3-yl)Propan-2-ol] | 13 nM | 35 nM
COc1ncc(Nc2ncc(C(C)(C)C(=O)O)cc2-c2nc(C)nc(N)n2)cc1F [Example 346, 2-(5-(4-Amino-6-Methyl-1,3,5-Triazin-2-yl)-6-(5-Fluoro-6-Methoxypyridin-3-Ylamino)Pyridin-3-yl)-2-Methylpropanoic Acid] | 377 nM | > 10000 nM
COc1ncc(Nc2ncc(C(O)C(C)(C)O)cc2-c2nc(C)nc(N)n2)cc1F (stereo not shown) [Example 347, 1-(5-(4-Amino-6-Methyl-1,3,5-Triazin-2-yl)-6-(5-Fluoro-6-Methoxypyridin-3-Ylamino)Pyridin-3-yl)-2-Methylpropane-1,2-Diol] | 75 nM | 108 nM
COc1ncc(Nc2ncc(C(C)O)cc2-c2nc(C)nc(N)n2)cc1F (stereo not shown) [Example 349, 1-(5-(4-Amino-6-Methyl-1,3,5-Triazin-2-yl)-6-(5-Fluoro-6-Methoxypyridin-3-Ylamino)Pyridin-3-yl)Ethanol] | 59 nM | 13 nM
COc1cc(Nc2ncc(C(C)(C)O)cc2-c2nc(C)nc(N)n2)cnc1OC [Example 350, 2-(5-(4-Amino-6-Methyl-1,3,5-Triazin-2-yl)-6-(5,6-Dimethoxypyridin-3-Ylamino)Pyridin-3-yl)Propan-2-ol] | 19 nM | 7 nM
COc1ncc(Nc2ncc(C(OC(=O)c3cccc(Cl)c3)C(C)(C)O)cc2-c2nc(C)nc(N)n2)cc1F (stereo not shown) [Example 351, 1-(5-(4-Amino-6-Methyl-1,3,5-Triazin-2-yl)-6-(5-Fluoro-6-Methoxypyridin-3-Ylamino)Pyridin-3-yl)-2-Hydroxy-2-Methylpropyl 3-Chlorobenzoate] | 9 nM | 70 nM
COc1ncc(Nc2ncc(C(C)(C)O)cc2-c2nc(C)nc(N)n2)cc1C [Example 354, 2-(5-(4-Amino-6-Methyl-1,3,5-Triazin-2-yl)-6-(6-Methoxy-5-Methylpyridin-3-Ylamino)Pyridin-3-yl)Propan-2-ol] | 12 nM | 37 nM
COc1ncc(Nc2ncc(CN3CCN(C(=O)N(C)C(C)C)CC3)cc2-c2nc(C)nc(N)n2)cc1F [Example 357, 4-((5-(4-Amino-6-Methyl-1,3,5-Triazin-2-yl)-6-(5-Fluoro-6-Methoxypyridin-3-Ylamino)Pyridin-3-yl)Methyl)-N-Isopropyl-N-Methylpiperazine-1-Carboxamide] | 14 nM | 83 nM
COc1ncc(Nc2ncc([C@@H](C)N3CCN(S(C)(=O)=O)C[C@@H]3C)cc2-c2nc(C)nc(N)n2)cn1 [Example 362, 4-(2-(2-Methoxypyrimidin-5-Ylamino)-5-((R)-1-((S)-2-Methyl-4-(Methylsulfonyl)Piperazin-1-yl)Ethyl)Pyridin-3-yl)-6-Methyl-1,3,5-Triazin-2-Amine] | 2 nM | 10 nM
Cc1nc(N)nc(-c2cc([C@@H](C)N3CCN(S(C)(=O)=O)C[C@@H]3C)cnc2Nc2ccc(Cl)nc2)n1 [Example 363, 4-(2-(6-Chloropyridin-3-Ylamino)-5-((R)-1-((S)-2-Methyl-4-(Methylsulfonyl)Piperazin-1-yl)Ethyl)Pyridin-3-yl)-6-Methyl-1,3,5-Triazin-2-Amine] | 15 nM | 31 nM
COc1ncc(Nc2ncc(CN3CCN(S(C)(=O)=O)[C@H](C)C3)cc2-c2nc(C)nc(N)n2)cc1F [Example 364, (R)-4-(2-(5-Fluoro-6-Methoxypyridin-3-Ylamino)-5-((3-Methyl-4-(Methylsulfonyl)Piperazin-1-yl)Methyl)Pyridin-3-yl)-6-Methyl-1,3,5-Triazin-2-Amine] | 5 nM | 7 nM
COc1cnc(Nc2cnc(Cl)c(N)c2)c(-c2nc(C)nc(N)n2)c1 [Example 368, N5-(3-(4-Amino-6-Methyl-1,3,5-Triazin-2-yl)-5-Methoxypyridin-2-yl)-2-Chloropyridine-3,5-Diamine] | 270 nM | 117 nM
Cc1nc(N)nc(-c2cc(C(C)N3CCOCC3)cnc2Nc2cnc(Cl)c(NS(C)(=O)=O)c2)n1 (stereo not shown) [Example 369, N-(5-(3-(4-Amino-6-Methyl-1,3,5-Triazin-2-yl)-5-(1-Morpholinoethyl)Pyridin-2-Ylamino)-2-Chloropyridin-3-yl)Methanesulfonamide] | 8 nM | 9 nM
Cc1nc(N)nc(-c2cc(C(C)N3CCOCC3)cnc2Nc2cnc(Cl)c(NS(=O)(=O)N(C)C)c2)n1 (stereo not shown) [Example 370, N-(5-(3-(4-Amino-6-Methyl-1,3,5-Triazin-2-yl)-5-(1-Morpholinoethyl)Pyridin-2-Ylamino)-2-Chloropyridin-3-yl)-N,N-Dimethylaminosulfamide] | 10 nM | 3 nM
Cc1nc(N)nc(-c2cc([C@@H](C)N3CCOCC3)cnc2Nc2cnc(Cl)c(NS(=O)(=O)N(C)C)c2)n1 [Example 373, (R)—N-(5-(3-(4-Amino-6-Methyl-1,3,5-Triazin-2-yl)-5-(1-Morpholinoethyl)Pyridin-2-Ylamino)-2-Chloropyridin-3-yl)-N,N-Dimethylaminosulfamide] | 6 nM | 1 nM
Cc1nc(N)nc(-c2cc([C@H](C)N3CCOCC3)cnc2Nc2cnc(Cl)c(NS(=O)(=O)N(C)C)c2)n1 [Example 374, (S)—N-(5-(3-(4-Amino-6-Methyl-1,3,5-Triazin-2-yl)-5-(1-Morpholinoethyl)Pyridin-2-Ylamino)-2-Chloropyridin-3-yl)-N,N-Dimethylaminosulfamide] | 15 nM | 7 nM
Cc1nc(N)cc(-c2cccnc2Nc2cnc(Cl)c(NS(=O)(=O)N(C)C)c2)n1 [Example 375, N-(5-(3-(6-Amino-2-Methylpyrimidin-4-yl)Pyridin-2-Ylamino)-2-Chloropyridin-3-yl)-N,N-Dimethylaminosulfamide] | 152 nM | 175 nM
COCCOc1cnc(Nc2cnc(C)c(NS(C)(=O)=O)c2)c(-c2nc(C)nc(N)n2)c1 [Example 376, N-(5-(3-(4-Amino-6-Methyl-1,3,5-Triazin-2-yl)-5-(2-Methoxyethoxy)Pyridin-2-Ylamino)-2-Methylpyridin-3-yl)Methanesulfonamide] | 71 nM | 267 nM
Cc1nc(N)nc(-c2cccnc2Nc2cnc(C)c(NS(C)(=O)=O)c2)n1 [Example 377, N-(5-(3-(4-Amino-6-Methyl-1,3,5-Triazin-2-yl)Pyridin-2-Ylamino)-2-Methylpyridin-3-yl)Methanesulfonamide] | 279 nM | 364 nM
C=Cc1cnc(Nc2cnc(Cl)c(NS(C)(=O)=O)c2)c(-c2cc(N)nc(C)n2)c1 [Example 380, N-(5-(3-(6-Amino-2-Methylpyrimidin-4-yl)-5-Vinylpyridin-2-Ylamino)-2-Chloropyridin-3-yl)Methanesulfonamide] | 59 nM | 16 nM
COc1ncc(Nc2ncc(CN3CCN4C(CCS4(=O)=O)C3)cc2-c2nc(C)nc(N)n2)cc1F (stereo not shown) [Example 383, 4-(5-((1,1-Dioxidohexahydro-5H-Isothiazolo[2,3-A]Pyrazin-5-yl)Methyl)-2-((5-Fluoro-6-Methoxy-3-Pyridinyl)Amino)-3-Pyridinyl)-6-Methyl-1,3,5-Triazin-2-Amine] | 7 nM | 8 nM
